Reference: patent publication US20140051877A1, “EICOSAPENTAENOIC ACID (EPA) AS POLYUNSATURATED FREE FATTY ACID IN ITS DIRECTLY COMPRESSIBLE POWDER FORM AND PROCESS OF ISOLATION THEREOF” (priority 2011, published 2014)

What was measured:
[1] = Physical characterisation of isolated EPA: solubility; assay type: physicochemical; details: solvent chloroform; isolated EPA free fatty acid powder
Protocol: Take 1 litre of fish oil. Maintain temperature to 40-45° C. To it add 1-2% methanolic or ethanolic or propanolic or butanolic sodium or potassium hydroxide 1 litre and stir for ½ an hour. keep aside, it separates into 2 layers, discard an upper layer which contains lower fatty acids. It further separates in to two layers, discard the upper layer. Then in lower layer add 750 ml of acetone or ethyl/ methyl ketone and stir for ½ an hour and keep aside for 20 mins. It precipitates and form two phase (solid and liquid) filter it and discard the solid layer. In the lower liquid layer, after ½ an hour, settle solid compound. On filtration, the solid compound separates. Wash the solid compound 2-3 times with 400 ml of acetone and Evaporate and recover the solvent with temperature not exceeding 40 degree C. This leads to drying of the precipitated EPA at room temperature to form the crystalline mass. The same is passed through the sieve to obtain a dry, directly compressible, free flowing powder of free fatty acid EPA thereof.
Cool fish oil to 12 degree C. to solidify all fatty acids in waxy form which separates from the fish oil. […] It is washed 2-3 times with equal quantity of acetone and Evaporate and recover the solvent with temperature not exceeding 40 degree C. […]

[2] = Stability of EPA powder at room temperature; assay type: physicochemical; details: powder form, no antioxidants added

Solubility [1]: freely soluble in chloroform
Stability [2]: stable at room temperature
Compound: CC/C=C\C/C=C\C/C=C\C/C=C\C/C=C\CCCC(=O)O [EPA, Eicosapentaenoic acid]
